Data published in article PMC11606603, “The membrane domains of mammalian adenylyl cyclases are lipid receptors” (eLife, 2024).
Values joined by “and” are separate entries in the source; they are usually repeats but may differ in a detail not shown here. Identical values can stand only once.

Key:
mAC3 = target: T1, mAC3 (Homo sapiens, UniProt O60266); experiment: AC assay, Gsα-stimulated mAC3 in membranes from transfected HEK293 cells; assay type: biochemical; details: for mAC3 activity; stimulated by 300nM Gsα + 20µM Oleic acid: 37°C
T1 construct: Human mAC genes were from GenScript and fitted with a C-terminal FLAG-tag; FLAG (C); made in house; host or cells: HEK293, permanently transfected; membrane preparation
Summary of the method: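 EC50 and IC50 values come from cAMP production, read with a Cisbio cAMP kit and converted via a standard curve. Assay mix held 1 mM ATP, 2 mM MgCl2, 3 mM creatine phosphate and 60 μg/ml creatine kinase in 50 mM MOPS pH 7.5, using transfected HEK293 membranes.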

mAC2 = target: T2, mAC2 (Homo sapiens, UniProt Q08462); experiment: AC assay, Gsα-stimulated mAC2 in membranes from transfected HEK293 cells; assay type: biochemical; details: for mAC2 activity [%] (100% = 300nM Gsα stimulation): Figure 5 B
T2 construct: Human mAC genes were from GenScript and fitted with a C-terminal FLAG-tag; FLAG (C); made in house; host or cells: HEK293, permanently transfected; membrane preparation
Summary of the method: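 Human AC, FLAG-tagged, stably expressed in HEK293; membranes used as enzyme. 1 mM ATP, 2 mM MgCl2, ATP regeneration, MOPS pH 7.5; cAMP kit readout.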

[1] = target: T3, HEK293 cells permanently transfected with mAC3 (Homo sapiens, UniProt O60266); experiment: cAMP accumulation assay, isoproterenol-stimulated HEK-mAC3 cells; assay type: cell-based
T3 construct: Human mAC genes were from GenScript and fitted with a C-terminal FLAG-tag; FLAG (C); expressed in transfected cells; host or cells: HEK293, permanently transfected
T3 sequence (O60266 1-1144): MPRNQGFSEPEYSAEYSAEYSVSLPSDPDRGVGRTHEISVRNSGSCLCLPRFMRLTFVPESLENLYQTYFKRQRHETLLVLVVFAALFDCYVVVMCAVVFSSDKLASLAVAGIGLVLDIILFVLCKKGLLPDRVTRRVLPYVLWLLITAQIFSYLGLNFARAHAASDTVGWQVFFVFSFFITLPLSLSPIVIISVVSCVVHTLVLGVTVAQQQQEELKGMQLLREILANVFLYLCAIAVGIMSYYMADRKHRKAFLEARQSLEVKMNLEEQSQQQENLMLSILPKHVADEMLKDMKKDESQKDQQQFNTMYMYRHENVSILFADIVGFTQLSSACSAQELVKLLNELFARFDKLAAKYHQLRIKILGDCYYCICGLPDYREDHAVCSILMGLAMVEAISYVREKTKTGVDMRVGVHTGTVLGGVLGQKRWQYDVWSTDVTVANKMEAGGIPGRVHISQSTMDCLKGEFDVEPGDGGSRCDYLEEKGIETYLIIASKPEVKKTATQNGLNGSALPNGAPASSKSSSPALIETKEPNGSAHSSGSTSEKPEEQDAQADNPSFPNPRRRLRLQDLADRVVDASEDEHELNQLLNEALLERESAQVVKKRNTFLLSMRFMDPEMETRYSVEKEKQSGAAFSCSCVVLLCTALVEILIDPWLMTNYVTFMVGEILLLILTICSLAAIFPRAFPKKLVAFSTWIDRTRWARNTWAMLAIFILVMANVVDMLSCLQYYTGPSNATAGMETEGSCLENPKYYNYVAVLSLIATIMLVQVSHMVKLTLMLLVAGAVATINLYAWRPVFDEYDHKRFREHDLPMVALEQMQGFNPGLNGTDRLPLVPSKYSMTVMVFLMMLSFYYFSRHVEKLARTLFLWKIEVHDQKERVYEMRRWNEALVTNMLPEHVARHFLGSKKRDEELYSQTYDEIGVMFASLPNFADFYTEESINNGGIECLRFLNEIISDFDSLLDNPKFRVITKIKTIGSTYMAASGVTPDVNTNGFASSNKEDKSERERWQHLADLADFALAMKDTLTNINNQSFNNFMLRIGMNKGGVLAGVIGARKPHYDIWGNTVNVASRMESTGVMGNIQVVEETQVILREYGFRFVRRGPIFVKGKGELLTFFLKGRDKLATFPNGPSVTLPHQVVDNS
Protocol: hAC sequences were from NCBI were: ADCY1: NM_021116.3; ADCY2: NM_020546.2; ADCY3: NM_004036.4; ADCY4: NM_001198568.2; ADCY5: NM_183357.2; ADCY6: NM_015270.4; ADCY7: NM_001114.4; ADCY8: NM_001115.2; ADCY9: NM_001116.3. Human mAC genes were from GenScript and fitted with a C-terminal FLAG-tag. […] The gene was synthesized by GenScript. HEK293 cells were maintained in Dulbeccos Modified Eagle Medium (DMEM) with 10% fetal bovine serum at 37°C and 5% CO2. Transfection with AC plasmids was with PolyJet (SignaGen, Frederick, MD, USA). Permanent cell lines were generated by selection for 7 days with 600 µg/ml G418 and maintained with 300 µg/ml For membrane preparation, cells were tyrpsinized, collected by centrifugation (3000 × g, 5 min) and lysed and homogenized in 20 mM HEPES, pH 7.5, 1 mM Ethylenediaminetetraacetic acid (EDTA), 2 mM MgCl2, 1 mM Dithiothreitol (DTT), one tablet of cOmplete, EDTA-free (per 50 ml) and 250 mM sucrose by 20 strokes in a potter homogenizer on ice. Debris was removed (5 min at 1000 × g, 0°C), membranes were collected at 100,000 × g, 60 min at 0°C, suspended and stored at −80°C in 20 mM MOPS, pH 7.5, 0.5 mM EDTA, 2 mM MgCl2. […] Three cerebral cortices were dissected and homogenized in 4.5 ml cold 48 mM Tris–HCl, pH 7.4, 12 mM MgC1_2, and 0.1 mM Ethylene glycol-bis(β-aminoethyl ether)-N,N,N′,N′-tetraacetic acid (EGTA) with a Polytron hand disperser (Kinematica AG, Switzerland). […] The pellet was washed once with 5 ml 1 mM KHCO3. The final suspension in 2 ml 1 mM KHCO3 was stored in aliquots at −80°C.
HEK293 cells stably expressing mAC isoforms 3, 5, and mAC5(membr)_mAC3(cat) were plated at 2500–10,000 cells/well into 384-well plates. […] Addition of Cisbio HTRF detection reagents stopped the reaction and cAMP levels were determined.

T1 sequence (P63092 whole entry Q227L partner, one chain of several): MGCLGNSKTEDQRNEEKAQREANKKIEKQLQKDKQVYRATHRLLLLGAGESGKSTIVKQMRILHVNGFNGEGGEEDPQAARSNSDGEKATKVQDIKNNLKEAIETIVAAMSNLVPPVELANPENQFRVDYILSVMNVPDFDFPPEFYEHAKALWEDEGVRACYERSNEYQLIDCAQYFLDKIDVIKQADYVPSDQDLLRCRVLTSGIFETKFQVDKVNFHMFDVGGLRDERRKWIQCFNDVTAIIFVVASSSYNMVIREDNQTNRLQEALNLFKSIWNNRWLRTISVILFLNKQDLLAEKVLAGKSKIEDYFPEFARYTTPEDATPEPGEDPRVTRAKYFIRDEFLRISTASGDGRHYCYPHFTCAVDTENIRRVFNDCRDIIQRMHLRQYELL
T2 sequence (Q08462 whole entry): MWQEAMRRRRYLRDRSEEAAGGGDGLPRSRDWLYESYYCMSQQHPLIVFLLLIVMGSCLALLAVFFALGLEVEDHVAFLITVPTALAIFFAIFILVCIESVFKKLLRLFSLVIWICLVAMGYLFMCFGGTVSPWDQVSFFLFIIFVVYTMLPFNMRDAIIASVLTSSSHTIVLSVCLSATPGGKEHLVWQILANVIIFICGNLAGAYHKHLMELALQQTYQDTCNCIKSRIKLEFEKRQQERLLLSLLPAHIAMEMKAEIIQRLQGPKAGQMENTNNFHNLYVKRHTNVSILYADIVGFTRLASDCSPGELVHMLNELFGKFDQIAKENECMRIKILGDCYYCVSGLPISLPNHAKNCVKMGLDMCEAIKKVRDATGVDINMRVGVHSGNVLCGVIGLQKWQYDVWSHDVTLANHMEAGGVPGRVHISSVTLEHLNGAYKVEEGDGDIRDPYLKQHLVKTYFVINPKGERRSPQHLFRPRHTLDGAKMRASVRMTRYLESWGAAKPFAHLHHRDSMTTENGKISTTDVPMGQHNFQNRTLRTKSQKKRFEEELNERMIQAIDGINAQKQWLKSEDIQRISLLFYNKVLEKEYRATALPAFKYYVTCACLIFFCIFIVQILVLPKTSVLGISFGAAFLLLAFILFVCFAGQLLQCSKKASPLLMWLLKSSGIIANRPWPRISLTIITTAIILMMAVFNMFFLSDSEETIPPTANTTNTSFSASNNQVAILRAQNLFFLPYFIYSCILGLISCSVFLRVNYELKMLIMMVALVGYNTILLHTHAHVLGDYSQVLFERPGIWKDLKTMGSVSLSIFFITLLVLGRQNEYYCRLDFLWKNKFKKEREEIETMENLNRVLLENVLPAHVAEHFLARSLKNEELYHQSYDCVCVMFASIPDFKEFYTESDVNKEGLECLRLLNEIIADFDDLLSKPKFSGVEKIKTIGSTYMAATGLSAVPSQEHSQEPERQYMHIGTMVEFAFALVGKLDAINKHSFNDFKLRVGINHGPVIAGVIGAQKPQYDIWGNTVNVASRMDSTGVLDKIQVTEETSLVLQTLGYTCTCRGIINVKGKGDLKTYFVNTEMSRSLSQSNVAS
T2 sequence (P63092 2-394 Q227L partner): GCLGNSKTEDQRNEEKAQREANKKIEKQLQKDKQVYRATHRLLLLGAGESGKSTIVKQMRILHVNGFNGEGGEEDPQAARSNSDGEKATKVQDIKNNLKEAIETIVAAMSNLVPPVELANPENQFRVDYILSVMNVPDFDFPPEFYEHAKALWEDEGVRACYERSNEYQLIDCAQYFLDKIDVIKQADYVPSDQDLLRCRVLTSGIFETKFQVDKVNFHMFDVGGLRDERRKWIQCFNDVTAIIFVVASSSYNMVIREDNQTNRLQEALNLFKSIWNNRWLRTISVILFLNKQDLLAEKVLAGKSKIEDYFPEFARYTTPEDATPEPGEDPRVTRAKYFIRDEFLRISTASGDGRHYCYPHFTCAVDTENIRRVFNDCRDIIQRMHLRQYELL

## CCCCCCCC/C=C\CCCCCCCC(=O)O [Oleic acid, Oleic ((9Z)-octadecenoic) acid]
mAC3; fatty acid 20 µM, individual experiments, listed as Oleic
  mAC3 activity [%] (100% = 300nM Gsα stimulation): 298% and 532% and 253% and 428% and 297%
mAC3; time 3 min
  mAC3 activity; stimulated by 300nM Gsα + 20µM Oleic acid: 2.601 cAMP nmol/mg and 2.019 cAMP nmol/mg
mAC3; time 6 min
  mAC3 activity; stimulated by 300nM Gsα + 20µM Oleic acid: 2.734 cAMP nmol/mg and 2.75 cAMP nmol/mg
mAC3; time 10 min
  mAC3 activity; stimulated by 300nM Gsα + 20µM Oleic acid: 3.46 cAMP nmol/mg
mAC3; time 15 min
  mAC3 activity; stimulated by 300nM Gsα + 20µM Oleic acid: 4.543 cAMP nmol/mg and 5.759 cAMP nmol/mg
mAC3; time 20 min
  mAC3 activity; stimulated by 300nM Gsα + 20µM Oleic acid: 6.22 cAMP nmol/mg and 8.564 cAMP nmol/mg
mAC3; time 25 min
  mAC3 activity; stimulated by 300nM Gsα + 20µM Oleic acid: 9.573 cAMP nmol/mg and 11.033 cAMP nmol/mg
mAC3; with 20 µM oleic acid
  Vmax, mAC3: 1.23 nmol cAMP•mg^−1•min^−1
mAC2; 20 µM, in words
  Effect of lipid on 300 nM Gsα-stimulated mAC2: significantly enhanced
mAC2; Figure 5-figure supplement 1 left, 20 µM
  mAC2 activity [%] (100% = 300nM Gsα stimulation); 20µM fatty acid concentration: 252% and 212% and 173% and 181% and 196% and 228% and 168%
mAC2; oleic acid 0.3 µM
  mAC2 activity [%] (100% = 300nM Gsα stimulation): 100%
mAC2; oleic acid 1 µM
  mAC2 activity [%] (100% = 300nM Gsα stimulation): 98% and 100% and 117% and 87%
mAC2; oleic acid 3 µM
  mAC2 activity [%] (100% = 300nM Gsα stimulation): 82% and 99% and 116% and 107%
mAC2; oleic acid 6 µM
  mAC2 activity [%] (100% = 300nM Gsα stimulation): 120% and 95% and 119% and 162% and 110% and 87%
mAC2; oleic acid 10 µM
  mAC2 activity [%] (100% = 300nM Gsα stimulation): 157% and 167% and 142% and 171% and 162% and 123%
mAC2; oleic acid 20 µM
  mAC2 activity [%] (100% = 300nM Gsα stimulation): 196% and 228% and 168% and 252% and 212% and 173% and 181%
mAC2; enhancement of 300 nM Gsα-stimulated activity
  EC50: 8.6 µM
[1]; 2.5 µM isoproterenol
  EC50: 500 nM
  enhancement of cAMP formation in HEK-mAC3: 1.5 fold
[1]; HEK-mAC3, oleic acid 0.01 µM
  AC activity (%); 100%= 2.5µM Isoproterenol stimulation: 132%
[1]; HEK-mAC3, oleic acid 0.03 µM
  AC activity (%); 100%= 2.5µM Isoproterenol stimulation: 145% and 87%
[1]; HEK-mAC3, oleic acid 0.06 µM
  AC activity (%); 100%= 2.5µM Isoproterenol stimulation: 118% and 89%
[1]; HEK-mAC3, oleic acid 0.1 µM
  AC activity (%); 100%= 2.5µM Isoproterenol stimulation: 122% and 118% and 127% and 150%
[1]; HEK-mAC3, oleic acid 0.3 µM
  AC activity (%); 100%= 2.5µM Isoproterenol stimulation: 130% and 163%
[1]; HEK-mAC3, oleic acid 0.5 µM
  AC activity (%); 100%= 2.5µM Isoproterenol stimulation: 140% and 92%
[1]; HEK-mAC3, oleic acid 0.6 µM
  AC activity (%); 100%= 2.5µM Isoproterenol stimulation: 135% and 121% and 113% and 161%
[1]; HEK-mAC3, oleic acid 3 µM
  AC activity (%); 100%= 2.5µM Isoproterenol stimulation: 190% and 191% and 198% and 119%
[1]; HEK-mAC3, oleic acid 10 µM
  AC activity (%); 100%= 2.5µM Isoproterenol stimulation: 199% and 123% and 137% and 198% and 118% and 119%
[1]; HEK-mAC3, oleic acid 50 µM
  AC activity (%); 100%= 2.5µM Isoproterenol stimulation: 187% and 186% and 134%
